From patent US9982017B2, “Synthetic apelin mimetics for the treatment of heart failure” (priority 2012, dated 2018)
Read-outs that look alike come from different tables or passages of the source. *1 amine or outer side, *2 acyl side, *3 side chain or, on linkers, in order; H or OH if unused. Where a SMILES comes first, the peptide text is derived from it. Bridges are numbered along the chain shown (N, C = ends). [ ]: non-standard residue; d: D form. The star is where a group is joined. Palmitoyl = CCCCCCCCCCCCCCCC(=O)*; Cha = N[C@@H](CC1CCCCC1)C(=O)O; pGlu = O=C1CC[C@@H](C(=O)O)N1; CH2COCH2 = O=C(C[*:1])C[*:2]; Nle = CCCC[C@H](N)C(=O)O; AEEA = NCCOCCOCC(=O)O

Assays:
hAPJ = target: T1, hAPJ (Homo sapiens, UniProt P35414); experiment: hAPJ Calcium Flux Assay; format: cell-based
T1 sequence (P35414 1-380): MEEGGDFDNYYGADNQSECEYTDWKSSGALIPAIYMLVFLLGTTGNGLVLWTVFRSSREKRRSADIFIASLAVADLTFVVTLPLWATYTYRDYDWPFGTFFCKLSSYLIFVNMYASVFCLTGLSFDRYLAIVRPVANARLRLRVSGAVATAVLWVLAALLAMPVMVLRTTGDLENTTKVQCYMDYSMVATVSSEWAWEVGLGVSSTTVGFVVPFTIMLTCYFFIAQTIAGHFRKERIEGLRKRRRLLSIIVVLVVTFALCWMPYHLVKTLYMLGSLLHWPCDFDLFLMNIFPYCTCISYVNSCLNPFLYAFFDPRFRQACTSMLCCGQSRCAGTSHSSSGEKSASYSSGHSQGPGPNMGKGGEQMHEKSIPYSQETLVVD
Method: Chem-5 APJ stable cells (Millipore # HTS068C) were plated in 384-well format with 10,000 cells/well in 25 ul growth media, then grown 24 hours in a 37° C. tissue culture incubator. One hour before the assay, 25 ul/well FLIPR Calcium 4 dye (Molecular Devices R8142) with 2.5 mM probenecid was added, and cells were incubated one hour in a 37° C. tissue culture incubator. Peptides were solubilized in HBSS, HEPES & 0.1% BSA buffer, and serially-diluted 10-fold, from 50 uM to 5 pM, in triplicate. FLIPR Tetra was used to add peptide to the cells with dye (1:5, for final peptide concentrations ranging from 10 uM to 1 pM). FLIPR dye inside the cells emitted fluorescence after binding to calcium, while fluorescence from outside the cells was masked. Fluorescence was measured using 470-495 excitation and 515-575 emission wavelengths on the FLIPR Tetra. Readings were done for 3 minutes total, beginning 10 seconds before the peptide addition. Maximum-minimum values were calculated and plotted for each peptide concentration, and Graph Pad prism software was used to calculate EC50 values at the curve inflection points, for calcium flux stimulation by peptides.

[1] = Surrogate Activity-Based Plasma Stability Assay (calcium flux EC50 after incubation with 5% rat plasma); details: not told
in vitro = details: rat, not told
[2] = Plasma Stability Assay (LC-MS); format: in vitro ADME; details: male, Sprague-Dawley, heparinized rat plasma, 37° C., Table 3, read-out: Plasma stability t½
Method: • Working solution: 1 mg/mL test article is prepared in Milli-Q water • Extraction solution: Methanol:Acetonitrile:Water (1:1:1) with 0.1% Formic Acid and 400 ng/mL Glyburide. • Plasma: Male Sprague-Dawley rat plasma (with sodium heparin), purchased from Bioreclamation LLC (Liverpool, N.Y.). • Whole blood: Male Sprague Dawley whole blood (with sodium heparin), purchased from Bioreclamation LLC (Liverpool, N.Y.) • Lung homogenate: Male rat Sprague Dawley lung was purchased from Bioreclamation LLC (Liverpool, N.Y.). The lung was homogenized using polytron homogenizer after addition of 5× volume of 1×PBS. The homogenate was centrifuged at 9000 rpm for 10 min at 4° C. The supernatant was centrifuged again at 3000 rpm for 30 min to make a clear supernatant. Protein concentration was determined using a commercial kit (Pierce, Thermo Scientific). Sample Preparation Procedure:
Test article was prepared in one of the following biological matrices: heparinized rat plasma, heparinized rat whole blood or lung homogenate. The plasma and whole blood sample was prepared at 5000 ng/mL by adding 5 uL of 1 mg/mL Working solution to 995 uL of rat plasma or whole blood. Lung homogenate samples were prepared by diluting lung homogenate to 1 mg/ml protein concentration with phosphate buffered saline (PBS), followed by addition of 5 uL Working solution to 995 uL diluted lung homogenate. The samples were incubated at 37° C. with gentle shaking (65˜75 rpm) in a water bath incubator. At times 0 min, 5 min, 15 min, 30 min, 60 min, 120 and 240 min, 25 uL aliquots of incubation samples were transferred to 96-well plate and immediately protein precipitated using 150 uL of Extraction solution. After completion of incubation experiment, the sample plate was centrifuged at 4000 rpm at 4° C. for 10 minutes. Afterwards, a pipetting device (Tecan Temo) was used to tranfer the supernatants to another plate and add 50 uL of water to all samples. The plate was vortexed prior to LC-MS analysis. • LC-MS Analysis of Stability Samples • HPLC: Agilent 1290 HPLC with autosampler • Column: MAC-MOD ACE C18, 3 μm, 30 mm×2.1 mm i.d. • Mobile phase A: 0.1% Formic acid in acetonitrile • Mobile phase B: 0.1% Formic acid in water Gradient Program: […]

[3] = Surrogate activity-based Plasma stability t½

| Structure (SMILES) | half-life [1] [h] | half-life (in vitro; [3]) [h] | other results |
| --- | --- | --- | --- |
| CCCC[C@@H]1NC(=O)[C@@H]2CCCN2C(=O)CNC(=O)[C@H](CCCCN)NC(=O)[C@H](Cc2ccccc2)NC(=O)[C@@H]2CSSC[C@H](NC1=O)C(=O)N[C@@H](Cc1ccccc1)C(=O)NCC(=O)NCC(=O)N[C@@H](CCC(N)=O)C(=O)N[C@@H](CCCNC(=N)N)C(=O)N1CCC[C@H]1C(=O)N[C@@H](CCCNC(=N)N)C(=O)N[C@@H](CC(C)C)C(=O)N2 [Example 7, Q-R-P-R-L-C-F-K-G-P-Nle-C-F-G-G] (cyclo(CFGGQRPRLCFKGP[Nle]); disulfide 1-10) | > 16.7 | – | EC50 (hAPJ): 90.9 nM |
| CCCC[C@@H]1NC(=O)[C@@H]2CCCN2C(=O)CNC(=O)[C@H](CCCCN)NC(=O)[C@H](Cc2cnc[nH]2)NC(=O)[C@@H](NC(=O)[C@H](CC(C)C)NC(=O)[C@H](CCCNC(=N)N)NC(=O)[C@@H]2CCCN2C(=O)[C@H](CCCNC(=N)N)NC(=O)[C@@H]2CCC(=O)N2)CSCC(=O)CSC[C@@H](C(=O)N[C@@H](Cc2ccccc2)C(=O)O)NC1=O [Example 64, (S)-2-((3S,6R,14R,17S,20S,28aS)-17-((1H-imidazol-5-yl)methyl)-20-(4-aminobutyl)-3-butyl-14-((S)-2-((S)-5-guanidino-2-((S)-1-((S)-5-guanidino-2-((S)-5-oxopyrrolidine-2-carboxamido)pentanoyl)pyrrolidine-2-carboxamido)pentanamido)-4-methylpentanamido)-1,4,10,15,18,21,24-heptaoxohexacosahydropyrrolo[2,1-i][1,23,4,7,10,13,16,19]dithiahexaazacyclohexacosine-6-carboxamido)-3-phenylpropanoic acid] ([pGlu]RPRLCHKGP[Nle]CF-OH; linker 6-12 via CH2COCH2) | 7.58 | – | – |
| CCCCCCCCCCCCCCCC(=O)NCCOCCOCC(=O)N[C@@H](CCC(N)=O)C(=O)N[C@@H](CCCNC(=N)N)C(=O)N1CCC[C@H]1C(=O)N[C@@H](CCCNC(=N)N)C(=O)N[C@@H](CC(C)C)C(=O)N[C@H]1CSSC[C@@H](C(=O)N[C@@H](Cc2ccccc2)C(=O)O)NC(=O)[C@H](CCCC)NC(=O)[C@@H]2CCCN2C(=O)CNC(=O)[C@H](CCCCN)NC(=O)[C@H](Cc2c[nH]cn2)NC1=O [Example 24, Palmitoyl-O2Oc-Q-R-P-R-L-C-H-K-G-P-Nle-C-F-OH] ({Palmitoyl-AEEA}-QRPRLCHKGP[Nle]CF-OH; disulfide 6-12) | – | 5.06 | EC50 (hAPJ; Chem-5 APJ stable cells, FLIPR Calcium 4 dye, read-out: hAPJ Ca^2+ Flux EC50): 32.7 nM |
| CCCC[C@@H]1NC(=O)[C@@H]2CCCN2C(=O)CNC(=O)[C@H](CCCCN)NC(=O)[C@@H]2CSSC[C@H](NC(=O)[C@H](CCCNC(=N)N)NC(=O)[C@@H]3CCC(=O)N3)C(=O)N[C@@H](CCCNC(=N)N)C(=O)N[C@@H](CC(C)C)C(=O)N[C@@H](CSSC[C@@H](C(=O)N[C@@H](Cc3ccccc3)C(=O)O)NC1=O)C(=O)N2 [Example 29, pE-R-C-R-L-C-C-K-G-P-Nle-C-F-OH] ([pGlu]RCRLCCKGP[Nle]CF-OH; disulfide 3-7, 6-12) | 3.61 | – | – |
| CCCC[C@@H]1NC(=O)[C@@H]2CCCN2C(=O)CNC(=O)[C@H](CCCCN)NC(=O)[C@@H]2CSSC[C@H](NC(=O)[C@@H]3CCCN3C(=O)[C@H](CCCNC(=N)N)NC(=O)[C@@H]3CCC(=O)N3)C(=O)N[C@@H](CC(C)C)C(=O)N[C@@H](CSSC[C@@H](C(=O)N[C@@H](Cc3ccccc3)C(=O)O)NC1=O)C(=O)N2 [Example 28, pE-R-P-C-L-C-C-K-G-P-Nle-C-F-OH] ([pGlu]RPCLCCKGP[Nle]CF-OH; disulfide 4-7, 6-12) | 7.34 | – | – |
| N=C(N)NCCC[C@H](NC(=O)[C@@H]1CCCN1C(=O)[C@H](CCCNC(=N)N)NC(=O)[C@@H]1CCC(=O)N1)C(=O)N[C@@H](CC1CCCCC1)C(=O)N[C@H]1CSSC[C@@H](C(=O)N[C@@H](Cc2ccccc2)C(=O)O)NC(=O)[C@H](CC2CCCCC2)NC(=O)[C@@H]2CCCN2C(=O)CNC(=O)[C@H](CCCCN)NC(=O)[C@H](Cc2c[nH]cn2)NC1=O [Example 14, pE-R-P-R-Cha-C-H-K-G-P-Cha-C-F-OH] ([pGlu]RPR[Cha]CHKGP[Cha]CF-OH; disulfide 6-12) | – | 1.42 | half-life at 5000 ng/mL [2]: 1.05 h; half-life (in vitro; Surrogate Activity based Plasma stability t½): 1.42 h |
